Tested on: Broiler chicken
Assay: Broiler growth test over 42 days with additives in animal feed or drinking water (AEW, FCR)
Type: in vivo
Details: for D 0-42 AEW (average final weight of the broilers at day 42): Poor Feed day 0-13 then Rich Feed to day 42, average of 5 pens; for Ranking AEW 42 / Ranking FCR 42: compared to Rich feed standard test = 100%; for D 0-42 FCR (conversion of feed to chicken weight): lower is better
Experimental: Broiler chicken were grown during 42 days, with and without the abovementioned compositions being added to either the animal feed, or the drinking water.
By the end of the test period of 42 days, the final weight of the broiler was determined, this is the AEW (Average End Weight), as well as the degree of conversion of feed to chicken weight, this is the FCR (Feed Conversion Rate). The latter parameter indicates the amount of feed a broiler chicken should eat per kilogram of final weight of the animal. The lower this parameter, the more efficient the chicken has been fed. This parameter is influenced by the way the animal feed is digested by the intestinal tract or metabolism of the chicken, but also by the way the feed offered to the chicken is effectively accepted by the animal. The latter to a large extent is determined by the taste of the feed offered. To the extent the taste of the feed offered is positively acknowledged by the chicken, less feed is removed by the animal; so dependent on the taste of the feed, more or less of the feed is discarded by the chicken.
The tests were performed on groups of each time 20 broilers for each pen.
Each test was repeated on each time five pens, so each test was performed on in total 100 broilers.
Each value represents an average amount of the results obtained for each set of the five pens.
It is then added to the feed as a powdery compound. In practice it is much easier to mix such a powdery composition with the animal feed, as compared to the addition of a fluid to the feed. • The next two columns show the results of the test, expressed as final weight of the animal, in this case a broiler chicken. • The column with the heading D 0-42 AEW denotes the average final weight of the broilers at day 42 (Average End Weight). The higher the value for this parameter, the better. • The column with the title Ranking AEW 42 denotes, expressed as a percentage, the result of the test in terms of AEW, as compared to the standard test, corresponding to a standard value set at 100%. • The last two columns set forth the results of the test, expressed differently, namely as a measure for the conversion of the feed in meat-resp. increase of weight of the animal, as set forth above. • The column with the title D 0-42 FCR denotes the average value of the conversion of feed to weight of the animal. The lower the value for this parameter, the better. The lower the value, the more efficient the conversion of feed into animal meat has been performed. • The column with the heading Ranking FCR 42 denotes, expressed as a percentage, the result of the test with respect to FCR, as compared to the standard test, which has been allocated the value of 100%.
The feed that has been fed to the broilers in the various tests comprises two different embodiments: • a first type of feed is the so-called ‘Poor Feed’: this is a normal, customary feed that is being fed to the broilers, whereby no forced growth and feed conversion is to be expected, and whereby also no particular duty on the intestinal tract of the broilers is imposed. Differently phrased, the broilers have no difficulty in digesting this feed, and the younger broilers grow in a normal path to fully-grown adult animals. • a second type of feed is the so-called ‘Rich Feed’: this is a feed particularly high in energy and proteins, to which a component has been added that results in a more viscous intestine content. The result of the use of this type of feed is that the growth of the broilers is intensified, but it also results in a heavier load on the intestinal tract. So the intestines of the broilers should work harder to fully digest the feed absorbed by the animal. In this case the risk of disturbing the bacterial balance in the intestinal tract is substantially higher. Such an imbalance in bacteria (dysbacteriosis) may be a cause of diseases with resulting adverse effects. […]

[1] = via drinking water, dosage 2.22 Kg/Ton
[2] = TVN 5 mg/KgLW via drinking water, dosage 0.04 Kg/Ton

Structure (SMILES): CCCCCCCCCCCC(=O)OCC(O)CO (centres unmarked) [Comp 1, monolaurin]
- D 0-42 AEW (average final weight of the broilers at day 42) (dosage 1.2 Kg/Ton of feed): 2.55 kg
- Ranking AEW 42 (dosage 1.2 Kg/Ton of feed): 97%
- Ranking FCR 42 (dosage 1.2 Kg/Ton of feed): 104.6%
- D 0-42 FCR (conversion of feed to chicken weight) (dosage 1.2 Kg/Ton of feed, day 0-42): 1.74
- D 0-42 AEW (average final weight of the broilers at day 42) (dosage 2.4 Kg/Ton of feed): 2.65 kg
- Ranking AEW 42 (dosage 2.4 Kg/Ton of feed): 101%
- Ranking FCR 42 (dosage 2.4 Kg/Ton of feed): 101.3%
- D 0-42 FCR (conversion of feed to chicken weight) (dosage 2.4 Kg/Ton of feed, day 0-42): 1.69

Structure (SMILES): CCCC(=O)OCC(O)CO (centres unmarked) [Comp 4, monobutyrin]
- D 0-42 AEW (average final weight of the broilers at day 42) (dosage 2 Kg/Ton of feed): 2.68 kg
- Ranking AEW 42 (dosage 2 Kg/Ton of feed): 102%
- Ranking FCR 42 (dosage 2 Kg/Ton of feed): 97.9%
- D 0-42 FCR (conversion of feed to chicken weight) (dosage 2 Kg/Ton of feed, day 0-42): 1.63
- D 0-42 AEW (average final weight of the broilers at day 42) (dosage 4 Kg/Ton of feed): 2.63 kg
- Ranking AEW 42 (dosage 4 Kg/Ton of feed): 100%
- Ranking FCR 42 (dosage 4 Kg/Ton of feed): 101.9%
- D 0-42 FCR (conversion of feed to chicken weight) (dosage 4 Kg/Ton of feed, day 0-42): 1.70
- D 0-42 AEW (average final weight of the broilers at day 42) [1]: 2.65 kg
- Ranking AEW 42 [1]: 101%
- Ranking FCR 42 [1]: 98.6%
- D 0-42 FCR (conversion of feed to chicken weight) (via drinking water, dosage 2.22 Kg/Ton, day 0-42): 1.64

Structure (SMILES): CC[C@H]1OC(=O)C[C@@H](OC(C)=O)[C@H](C)[C@@H](O[C@@H]2O[C@H](C)[C@@H](O[C@H]3C[C@@](C)(O)[C@@H](OC(=O)CC(C)C)[C@H](C)O3)[C@H](N(C)C)[C@H]2O)[C@@H](CC=O)C[C@@H](C)C(=O)/C=C/C(C)=C/[C@@H]1CO[C@@H]1O[C@H](C)[C@@H](O)[C@@H](OC)[C@H]1OC [Ref 3, Tylvalosin]
- average increase in weight per day of the broilers (Rich Feed with addition of TVN): 66.3 gr
- D 0-42 AEW (average final weight of the broilers at day 42) [2]: 2.79 kg
- Ranking AEW 42 [2]: 106%
- Ranking FCR 42 [2]: 96.6%
- Ranking AEW 42 (TVN 5 mg/KgLW via drinking water, dosage 0.04 Kg/Ton, listed as Tylvalosin): 105.53%
- D 0-42 FCR (conversion of feed to chicken weight) (TVN 5 mg/KgLW via drinking water, dosage 0.04 Kg/Ton, entire period day 0-42): 1.61

Reference: US10398155B2, “Animal feed comprising a combination of mono glycerides” (Proviron Holding N.V., priority 2013, dated 2019)
